Measured values published in US5391540A, “Substituted pyridine compounds” (Rohm and Haas Company, priority 1993, dated 1995).
Where “and” joins values, the source holds several entries; their conditions need not be identical. Equal entries are not always repeated.

Key:
Assay type in all cases: in vivo
Cocw = assay: plant injury after spraying emerged plants (Table D); parameters: scale not given here
Excerpt: (§1) Topsoil (silt loam) is sieved through a screen having 1.27 cm openings. In some of the tests the soil was mixed with fertilizer (1225 g/cu. m of 12/5/9 containing isobutylidene diurea), while in other tests the fertilizer was omitted. This mixture is steam sterilized and then placed in aluminum pans 6.985 cm deep having ten holes in the bottom each 0.635 cm in diameter. The soil mixture is compacted to a depth of 1.27 cm. from the top of the pan. A predetermined number of seeds of each of several dicotyledonous and monocotyledonous annual plant species and/or vegetative propagules for the perennial plant species are placed on the soil and pressed into the soil surface. The seeds and/or vegetative propagules are covered with 1.27 cm of a mixture of 50% topsoil and 50% of a mixture of Canadian sphagnum peat moss, vermiculite and a wetting agent. The pans are then placed on a capillary mat on a greenhouse bench and subirrigated as needed. After the plants reach the desired stage (9 to 14 days, 1 to 3 true leaf stage), each pan (except the control pans) is removed to a spraying chamber and sprayed by means of an atomizer, operating at a spray pressure of 170.3 kPa ([…]) at the application rates noted in Table D. In the spray solution is an amount of an emulsifying agent mixture (35% butylamine salt of dodecylbenzenesulfonic acid and 65% tall oil condensed with ethylene oxide in the ratio of 11 mols of ethylene oxide/mol of tall oil) to give a spray solution or suspension. The spray solution or suspension contains a sufficient amount of the candidate chemical in order to give application rates of the active ingredient corresponding to those shown in Table D below while applying a total amount of solution or suspension equivalent to 1870 L/Ha (200 gallons/acre). The pans are returned to the greenhouse and watered as before and the injury to the plants as compared to the control pans is observed at approximately 10-14 days (usually 11 days).
(§2) In the following Table D the legends used to identify the plant species are the same as those used in the preceding Table B.

Colq = assay: as above; parameters: scale not given here
Excerpt: as §1, §2

Sube = assay: as above; parameters: scale not given here
Excerpt: as §1, §2

Pesw = assay: as above; parameters: scale not given here
Excerpt: as §1, §2

Pennsylvania Smartweed = assay: Pre-emergent herbicidal activity (Table A); settings: pre-emergence, Pesw, 11.2 kg/ha, 10-14 days, read-out: herbicidal rating (% inhibition)
Summary of the method: (§3)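 Percent inhibition per species, scored on a rating scale, after pre-emergent soil incorporation: test compound in acetone or water carrier mixed into cover soil, layered over seeded topsoil or vegetative propagules.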

Rhizome Johnsongrass = assay: Pre-emergent herbicidal activity (Table A); settings: Sorghum halepense, pre-emergence, Rhjg, 11.2 kg/ha, 10-14 days, read-out: herbicidal rating (% inhibition)
Summary of the method: as §3

Canada thistle = assay: Pre-emergent herbicidal activity (Table A); settings: Cirsium arvense, pre-emergence, Cath, 11.2 kg/ha, 10-14 days, read-out: herbicidal rating (% inhibition)
Summary of the method: as §3

Common Lambsquarters = assay: Pre-emergent herbicidal activity (Table A); settings: Chenopodium album, pre-emergence, Colq, 11.2 kg/ha, 10-14 days, read-out: herbicidal rating (% inhibition)
Summary of the method: as §3

Quackgrass = assay: Pre-emergent herbicidal activity (Table A); settings: pre-emergence, Rhqg, 11.2 kg/ha, 10-14 days, read-out: herbicidal rating (% inhibition)
Summary of the method: as §3

| Structure (SMILES) | plant injury rating, Cocw (Cocw; 0.2803 kg/ha) | plant injury rating, Cocw (Cocw; 1.1210 kg/ha) | plant injury rating, Cocw (Cocw; 5.6050 kg/ha) | inhibition at 11200 g/ha (Pennsylvania Smartweed) [%] | inhibition at 11200 g/ha (Rhizome Johnsongrass) [%] | inhibition at 11200 g/ha (Canada thistle) [%] | inhibition at 11200 g/ha (Common Lambsquarters) [%] | inhibition at 11200 g/ha (Quackgrass) [%] | also measured |
| --- | --- | --- | --- | --- | --- | --- | --- | --- | --- |
| COC(=O)c1c(OC)nc(C(F)(F)F)c(C(=O)n2ccc(F)n2)c1C1CCC1 [Compound 140, 3-pyridinecarboxylic acid, 4-cyclobuty1-5-[(3-fluoro-1H-pyrazo1-1-yl)carbonyl]-2-methoxy-6-(trifluoromethyl)-, methyl ester] | 2 | 2 | 3 | – | – | – | – | – | – |
| COC(=O)c1c(OC)nc(C(F)(F)Cl)c(C(=O)OC)c1CC(C)C [Compound 30, 3,5-pyridinedicarboxylic acid, 2-(chlorodifluoromethyl)-6-methoxy-4-(2-methylpropyl)-, dimethyl ester] | – | – | – | 75 to 100 | 75 to 100 | 75 to 100 | 75 to 100 | 75 to 100 | plant injury rating, Colq (Colq; 0.5605 kg/ha): 0; plant injury rating, Colq (Colq; 1.1210 kg/ha): 0; plant injury rating, Colq (Colq; 2.8025 kg/ha): 1; plant injury rating, Colq (Colq; 5.6050 kg/ha): 1; plant injury rating, Colq (Colq; 8.4075 kg/ha): 1; plant injury rating, Colq (Colq; 11.2100 kg/ha): 2; plant injury rating, Sube (Sube; 0.5605 kg/ha): 0; plant injury rating, Sube (Sube; 1.1210 kg/ha): 1; plant injury rating, Sube (Sube; 2.8025 kg/ha): 1; plant injury rating, Sube (Sube; 5.6050 kg/ha): 1; plant injury rating, Sube (Sube; 8.4075 kg/ha): 1; plant injury rating, Sube (Sube; 11.2100 kg/ha): 1; plant injury rating, Pesw (Pesw; 0.5605 kg/ha): 0; plant injury rating, Pesw (Pesw; 1.1210 kg/ha): 0; plant injury rating, Pesw (Pesw; 2.8025 kg/ha): 1; plant injury rating, Pesw (Pesw; 5.6050 kg/ha): 1; plant injury rating, Pesw (Pesw; 8.4075 kg/ha): 1; plant injury rating, Pesw (Pesw; 11.2100 kg/ha): 1 |
| COC(=O)c1c(OC)nc(C(F)(F)F)c(C2=NCCS2)c1CC(C)C [Compound 50, 3-pyridinecarboxylic acid, 5-(4,5-dihydro-2-thiazolyl)-2-methoxy-4-(2-methylpropyl)-6-(trifluoromethyl)-, methyl ester] | – | – | – | 75 to 100 | 75 to 100 | 75 to 100 | 75 to 100 | 75 to 100 | – |
| COC(=O)c1c(O)nc(C(F)(F)F)c(C(=O)OC)c1CC(C)C [Compound 1, 3,5-pyridinedicarboxylic acid, 2-hydroxy-4-(2-methylpropyl)-6-(trifluoromethyl)-, dimethyl ester] | – | – | – | 0 to 24 | 0 to 24 | 0 to 24 | 0 to 24 | 0 to 24 | – |
| COC(=O)c1c(OC)nc(C(F)(F)F)c(C(=O)Cl)c1CC1CC1 [Compound 113, 3-pyridinecarboxylic acid, 5-(chlorocarbonyl)-4-(cyclopropylmethyl)-2-methoxy-6-(trifluoromethyl)-, methyl ester] | 0 | – | 0 | – | – | – | – | – | – |
| COC(=O)c1c(OC)nc(C(F)(F)F)c(N=CSC)c1CC(C)C [Compound 77, 3-pyridinecarboxylic acid, 2-methoxy-4-(2-methylpropyl)-5-[[(methylthio)methylene]amino]-6-(trifluoromethyl)-, methyl ester] | – | – | – | 75 to 100 | 75 to 100 | 75 to 100 | 75 to 100 | 75 to 100 | plant injury rating, Colq (Colq; 1.1210 kg/ha): 3 and 2; plant injury rating, Colq (Colq; 2.8025 kg/ha): 3 and 2; plant injury rating, Colq (Colq; 5.6050 kg/ha): 2 and 3; plant injury rating, Colq (Colq; 11.2100 kg/ha): 2 and 3; plant injury rating, Sube (Sube; 1.1210 kg/ha): 1; plant injury rating, Sube (Sube; 2.8025 kg/ha): 2; plant injury rating, Sube (Sube; 5.6050 kg/ha): 2 and 1; plant injury rating, Sube (Sube; 11.2100 kg/ha): 2; plant injury rating, Pesw (Pesw; 1.1210 kg/ha): 0; plant injury rating, Pesw (Pesw; 2.8025 kg/ha): 0; plant injury rating, Pesw (Pesw; 5.6050 kg/ha): 0; plant injury rating, Pesw (Pesw; 11.2100 kg/ha): 2 and 1 |
| COC(=O)c1c(OC)nc(C(F)(F)F)c(C(=O)SC)c1C1CCC1 [Compound 137, 3-pyridinecarboxylic acid, 4-cyclobuty1-2-methoxy-5-[(methylthio)carbonyl]-6-(trifluoromethyl)-, methyl ester] | 2 | 3 | 3 | – | – | – | – | – | – |
| COC(=O)c1c(OC)nc(C(F)(F)F)c(C(=O)n2cccn2)c1CC1CC1 [Compound 116, 3-pyridinecarboxylic acid, 4-(cyclopropylmethyl)-2-methoxy-5-(1H-pyrazo1-1-ylcarbonyl)-6-(trifluoromethyl)-, methyl ester] | 1 | 2 | 2 | – | – | – | – | – | plant injury rating, Cocw (Cocw; 0.0701 kg/ha): 0 |
